The source of these data is US6194217A, “Method of diagnosing or categorizing disorders from biochemical profiles” (ESA, Inc., priority 1993, dated 2001).

Where two headings read alike, the source gives them in different places.

The nature of data set [1]: Incubation of β-amyloid in saline suspensions of nasal mucosa, development of electroactive peaks. The data set is classed as in vitro ADME. Conditions: over 6 hours, FIG. 7. An excerpt:
(§1) Two characteristics make nasal secretions attractive for neurochemical analysis. The secretions are close to the site or origin of the compounds being measured and they are in a strong reducing environment. Oxidation potential measurements of saline suspensions of nasal secretions with platinum vs. Ag/Ag/cl yield values from -0.230 to -0.300 mV compared to lumbar CSF values of -0.050 to -0.170. The reducing character of the tissue is consistent with observation of a large number of easily oxidized peaks on the lower channels of the chromatographic pattern. The reducing character of the sample makes it highly attractive for clinical use because of the stability inferred for the target compounds. Indeed preliminary studies indicate no change in 5-hydroxyindoleacetic acid or homovanillic acid over 24 hours in perchloric acid extracts at room temperature. From the number of peaks in the 35-50 min region, the nasal mucosa also appear to be a stable matrix for small peptides, including fragments of β-amyloid peptide.

A short description of data set [2]: Stability in perchloric acid extracts of nasal secretions over 24 hours at room temperature. The data set is classed as physicochemical.
From the text: as §1
Swabs were extracted by cutting the tip and placing it in 300 μl of 0.1 M HClO4, they ere vortexed for 1 min. centrifuged and then reextracted in another 300 μl of 0.1 M HClO4. […] Following centrifugation the pellets are combined, and can be extracted with 40:60 acetonitrilehexane for analysis of ubiquinones and larger peptides.

As to β-amyloid, in data set [1], the “development of electroactive peaks” value is recorded as “development over 6 hours of electroactive peaks” and the “electroactive peaks which corresponded to original peaks in the suspension” value is listed as “five”.

Take `O=C(O)Cc1c[nH]c2ccc(O)cc12` [5-hydroxyindoleacetic acid]: in data set [2], the “change over 24 hours (stability)” value is “no change”.

Consider `COc1cc(CC(=O)O)ccc1O` [homovanillic acid], for which the “change over 24 hours (stability)” value in data set [2] (24 hours, perchloric acid extracts, room temperature, preliminary studies) is recorded as “no change”.
